Reference: patent US9376391B2, “Difluoromethyl-nicotinic-tetrahydronaphthyl carboxamides as fungicides” (BAYER CROPSCIENCE AKTIENGESELLSCHAFT, priority 2012, dated 2016)

Key:
Sphaerotheca fuliginea = assay: In vivo preventive test on Sphaerotheca fuliginea (powdery mildew on cucurbits)
Procedure, shortened: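 Gherkin plants at Z11 cotyledon stage were sprayed with compound in acetone/tween/DMSO/water. After 24 h they were inoculated with S. fuliginea spores (100 000 spores per ml) and incubated at about 20° C and 70-80% RH. Percent efficacy versus solvent-treated controls was scored 12 days post-inoculation.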

Puccinia recondita = assay: In vivo preventive test on Puccinia recondita (brown rust on wheat)
Procedure, shortened: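 Wheat seedlings ("Scipion") sprayed with compound at the 1-leaf stage, inoculated 24 h later with Puccinia recondita spores (100 000 spores per ml). Incubated 24 h at 20° C and 100% RH, then 10 days at 20° C and 70-80% RH. Efficacy (%) versus solvent-treated controls graded 12 days after contamination.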

Alternaria brassicae = assay: In vivo preventive test on Alternaria brassicae (leaf spot on radish); settings: dose 500 ppm, spray, graded 6 days after contamination vs control plants
Procedure, shortened: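 Radish cv. Pernod Clair at cotyledon stage (grown 17 °C) sprayed with compound in acetone/tween/DMSO/water, then inoculated 24 h later with A. brassicae spores (50 000 spores per ml). Incubation 20 °C, 100% RH; % efficacy graded 6 days post-inoculation versus solvent-treated controls.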

Pyrenophora teres = assay: In vivo preventive test on Pyrenophora teres (net blotch on barley)
Protocol: In Vivo Preventive Test on Pyrenophora teres (Net Blotch on Barley)
The active ingredients tested are prepared by homogenization in a mixture of acetone/tween/DMSO, and then diluted with water to obtain the desired active material concentration.
Barley plants (“Plaisant” variety), sown in starter cups on a 50/50 peat soil-pozzolana substrate and grown at 22° C., are treated at the 1-leaf stage (10 cm height) by spraying with the active ingredient prepared as described above. Plants, used as controls, are treated with the mixture of acetone/tween/DMSO/water not containing the active material.
After 24 hours, the plants are contaminated by spraying the leaves with an aqueous suspension of Pyrenophora teres spores (12 000 spores per ml). The spores are collected from a 12-day-old culture. The contaminated barley plants are incubated for 48 hours at 20° C. and at 100% relative humidity, and then for 12 days at 20° C. at 70-80% relative humidity.
Grading (% of efficacy) is carried out 14 days after the contamination, in comparison with the control plants. plants.

Septoria tritici = assay: In vivo preventive test on Septoria tritici (leaf spot on wheat); settings: 500 ppm, preventive spray, wheat plants, grading 24 days after contamination
Procedure, shortened: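 Wheat cv. Scipion sprayed preventively at 1-leaf stage; inoculated 24 h later with Septoria tritici spores (500 000 spores per ml). Incubation 72 h at 18 °C, 100% RH, then 21 days at 90% RH; % efficacy graded 24 days after contamination against solvent-treated controls.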

Botrytis cinerea = assay: In vivo preventive test on Botrytis cinerea (grey mould), gherkin plants
Procedure, shortened: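 Gherkin plants sprayed at Z11 cotyledon stage with compound in acetone/tween/DMSO/water, inoculated 24 h later with B. cinerea spores (50 000 spores per ml) in nutrient solution. Kept at 17° C., 90% relative humidity; % efficacy graded 4 to 5 days post-inoculation versus solvent-treated controls.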

[1] = log P by HPLC on reversed phase columns (EEC directive 79/831 Annex V.A8); format: physicochemical; settings: Table 1, formula (I); HPLC/LC-MS at pH 2.7, 0.1% formic acid in water / acetonitrile, gradient 10% to 95%
Uromyces appendiculatus = assay: In vivo preventive test on Uromyces appendiculatus (bean rust); settings: 500 ppm, preventive spray, bean plants, grading 11 days after contamination
Procedure, shortened: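 'Saxa' bean plants at the 2-leaf stage were sprayed with compound and inoculated 24 h later with U. appendiculatus spores (150 000 spores per ml). Plants were incubated 24 h at 20 °C and 100% RH, then 10 days at 20 °C and 70–80% RH. Percent efficacy versus solvent-treated controls was graded 11 days post-inoculation.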

[2] = dose 100 ppm of active ingredient, comparison with known compounds
[3] = dose 100 ppm, comparison with known compounds, same conditions

## CC1CC(C)(C)c2cccc(NC(=O)c3cccnc3C(F)F)c21 (stereo not shown) [Example 1]
Sphaerotheca fuliginea; 500 ppm, preventive spray, gherkin plants, grading 12 days after contamination
  Eff. %: 100%
Sphaerotheca fuliginea; [2]
  protection (in words): total protection
Sphaerotheca fuliginea; dose 100 ppm, comparison with prior-art compounds, gherkin plants, grading 12 days after contamination
  Efficacy: 100%
Puccinia recondita; [2]
  protection (in words): total protection
Puccinia recondita; [3]
  Efficacy: 100%
Puccinia recondita; dose 500 ppm, wheat, spray, graded 12 days after contamination vs control plants
  Eff. %: 100%
Alternaria brassicae
  Eff. %: 92%
Pyrenophora teres; [2]
  protection (in words): total protection
Pyrenophora teres; [3]
  Efficacy: 100%
Pyrenophora teres; dose 500 ppm, barley, spray, graded 14 days after contamination vs control plants
  Eff. %: 100%
Septoria tritici
  Eff. %: 100%
Botrytis cinerea; [2]
  protection (in words): total protection
Botrytis cinerea; [3]
  Efficacy: 100%
Botrytis cinerea; dose 500 ppm, gherkin, spray, graded 4 to 5 days after contamination vs control plants
  Eff. %: 100%
[1]
  logP^[a]: 3.29^[a]
Uromyces appendiculatus
  Eff. %: 100%
